Reference: US20040266732A1, “Therapeutic agents, methods, and treatments” (priority 2002, published 2004)

Experiments:
HOP-92 = assay: Anchorage-independent colony-forming assay; assay type: cell-based, human; settings: for % Inhibition: colonies Day 14
Experimental: (§1) Testing was conducted employing standard tissue culture techniques and an anchorage-independent colony-forming assay.
(§2) MT103 was tested against the lung carcinoma cell lines NCI-H226, NCI-H522, and HOP-92. An anchorage-independent colony-forming assay was employed. For the experiment, the cells were harvested, centrifuged to remove the media, and suspended in Iscove's Modified Dulbecco's Medium (IMDM). Samples were taken to determine cell density. The cell count was determined with a Coulter Model Z1 cell counter and viability was measured with propidium iodide staining followed by analysis on a Coulter EPICS XL flow cytometer. Each cell line was plated at 1×10^5 cells per dish (35 mm) in IMDM with 20% FBS and 1% methylcellulose containing the appropriate concentration of test compound or DMSO control. Five concentrations of each compound and a DMSO control were tested in each of the three cell lines. The colonies per plate were counted on Day 14 after the initiation of treatment. The cell lines were propagated under sterile conditions and incubated at 37° C. in HEPA-filtered CO2 tissue culture incubators with 5% CO2 and 95% humidity. The cell line was subcultured weekly to bi-weekly and used in experiments. The test compounds were kept refrigerated under light protected conditions until dissolved in DMSO.
(§3) Anticellular effects of the compounds on the tumor line were assessed with a colony-forming assay. Briefly, cell were harvested and adjusted to 3×10^6 viable cells/mL in IMDM. Compounds (200×) were prepared in DMSO and serially diluted in DMSO to give appropriate testing concentrations. Cells (100 μL), compound or DMSO control (16.5 μL) and IMDM (183.5 μL) were added to the appropriate assay tubes (12×75 mm) containing 3 mL of complete media, IMDM with 20% FBS and 1% methylcellulose. Tubes were then vortexed and 1.1 mL of the cell suspension was added to each of two 35 mm dishes. These dishes were then incubated for 14 days in HEPA-filtered CO2 tissue culture incubators with 5% CO2 and 95% humidity. The colonies in each dish were then counted and the duplicates were averaged and reported

NCI-H226 = assay: Anchorage-independent colony-forming assay; assay type: cell-based, human; settings: for % Inhibition: colonies Day 14
Experimental: as §1, §2, §3

NCI-H522 = assay: Anchorage-independent colony-forming assay; assay type: cell-based, human; settings: for % Inhibition: colonies Day 14
Experimental: as §1, §2, §3

A549 (an adenocarcinoma) = assay: Induced-tumor NOD/SCID mouse model, A549; assay type: in vivo, NOD/SCID mice
Experimental: In another experiment, NOD/SCID mice, (NOD.CB17-Prkdcscid/J) were treated over a time course with 60 mg/kg of MT103 or a sham treatment, and a different lung cancer cell line was used, A549 (an adenocarcinoma), instead of NCI-H226 (a squamous carcinoma).

SMILES: CC1(C)C2CC[C@@]1(CS(=O)(=O)N(C1CCCCC1)C1CCCCC1)C(O)C2 (some centres unmarked) [MT103]
- IC50 (HOP-92; HOP-92, colony-forming assay): 24.2 µM
- % Inhibition (HOP-92; HOP-92, 0.8 μM): 0%
- % Inhibition (HOP-92; HOP-92, 4 μM): 0%
- % Inhibition (HOP-92; HOP-92, 20 μM): 43.3%
- % Inhibition (HOP-92; HOP-92, 100 μM): 100%
- % Inhibition (HOP-92; HOP-92, 500 μM): 100%
- −logGI50 value (HOP-92; HOP-92, see Table 5): 4.6
- IC50 (NCI-H226; NCI-H226, colony-forming assay): 8.39 µM
- % Inhibition (NCI-H226; NCI-H226, 0.8 μM): 3.1%
- % Inhibition (NCI-H226; NCI-H226, 4 μM): 36.7%
- % Inhibition (NCI-H226; NCI-H226, 20 μM): 65.6%
- % Inhibition (NCI-H226; NCI-H226, 100 μM): 92.2%
- % Inhibition (NCI-H226; NCI-H226, 500 μM): 99.7%
- −logGI50 value (NCI-H226; NCI-H226, see Table 5): 5.1
- IC50 (NCI-H522; NCI-H522, colony-forming assay): 81.7 µM
- % Inhibition (NCI-H522; NCI-H522, 0.8 μM): 0%
- % Inhibition (NCI-H522; NCI-H522, 4 μM): 0%
- % Inhibition (NCI-H522; NCI-H522, 20 μM): 0%
- % Inhibition (NCI-H522; NCI-H522, 100 μM): 57.2%
- % Inhibition (NCI-H522; NCI-H522, 500 μM): 100%
- −logGI50 value (NCI-H522; NCI-H522, see Table 5): 4.1
- onset of tumor growth (A549 (an adenocarcinoma); 60 mg/kg versus sham): delayed onset of tumor growth
- tumor size versus control (A549 (an adenocarcinoma); 60 mg/kg, t=30 days): significantly smaller than the control groups
